Values quoted from earlier work, collected in article PMC10532012, “A Putative Role of Vasopressin/Oxytocin-Type Neuropeptide in Osmoregulation and Feeding Inhibition of Apostichopus japonicus” (International Journal of Molecular Sciences, 2023).
Entries after “also recorded” stand apart in the source; their conditions may differ. Where no end group is shown, it is not given here.

Tests used:
mammals = tested on: mammals
Source text: The conservative functions of VP/OT-type neuropeptide in vertebrates have been extensively studied, mainly including water homeostasis, reproduction and social behavior [43, 44, 45]. However, few functional studies of VP/OT-type neuropeptide in deuterostomian invertebrates especially in echinoderms have been reported. Related physiological studies of echinoderm VP/OT-type neu ...

longitudinal muscle = conditions: 10^−7–10^−5 M; positive control
Description: To investigate the function of holotocin, longitudinal muscle, intestine and tentacle from A. japonicus were prepared. […] Firstly, the longitudinal muscle and intestine of A. japonicus were dissected and cut into strips approximately 20 mm in length. Then, these preparations were put into a 50 mL glass organ bath containing 2 ...

C. elegans = tested on: C. elegans
Description: (§1) Based on the genes/transcripts encoding VP/OT-type neuropeptide signaling identified from protostomian and deuterostomian animals, the physiological effects of VP/OT superfamily signaling were analyzed and compared. In protostomes, multiple physiological functions of VP/OT-type neuropeptides in different Phylum have been characterized.

Lasius neglectus = conditions: inotocin signaling
Description: as §1

rectum = tested on: rectum; parameters: method as in PMID 12972329

CYFQNCPRG-NH2 (disulfide) [VP, neurohypophyseal hormone …-NH2]
antidiuretic activity (mammals): had antidiuretic activity
blood pressure (mammals): increased blood pressure

CYIQNCPLG-NH2 (disulfide) [OT, neurohypophyseal hormone …-NH2]
lactation (mammals): stimulated lactation
uterine contraction (mammals): caused the uterine contraction

NGIWYamide [neuropeptide used as positive control for contraction of longitudinal muscles]
contraction of longitudinal muscle, NGIWYamide (longitudinal muscle): reported to cause contraction of longitudinal muscle preparations; also recorded: confirmed to cause contraction of longitudinal muscles

Nematocin: VP/OT-type neuropeptide in nematode C. elegans (CFLNSCPYRRY; ends and bridges not checked; cysteine pairing not given here; UniProt Q4R128 20-30, looked up)
associative learning (C. elegans): neuro-modulatory role in associative learning

inotocin
energy regulation (Lasius neglectus): of vital importance in energy regulation

octopressin
contraction of rectum (rectum): tonic contraction
